Source: patent US12319664B2, “Herbicidally active 3-phenylisoxazoline-5-carboxamides of cyclopentenylcarboxylic acid derivatives” (Bayer Aktiengesellschaft, priority 2018, dated 2025)

Legend:
ALOMY = assay: Post-emergence herbicidal action against ALOMY; format: in vivo, Alopecurus myosuroides; settings: application rate 80 g/ha, rated visually after about 3 weeks
How it was run: (§1)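 Greenhouse post-emergence test: compound sprayed onto green plant parts at one-leaf stage as WP or EC preparation with 0.5% additive, water rate 600 l/ha. Percent activity scored by eye after roughly 3 weeks, where 0% matches controls and 100% means death.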

POLCO = assay: Post-emergence herbicidal action against POLCO; format: in vivo, Polygonum convolvulus; settings: application rate 80 g/ha, rated visually about 3 weeks after treatment
How it was run: as §1

AVEFA = assay: Post-emergence herbicidal action against AVEFA; format: in vivo, Avena fatua; settings: application rate 80 g/ha, rated visually after about 3 weeks
How it was run: as §1

AMARE = assay: Post-emergence herbicidal action against AMARE; format: in vivo, Amaranthus retroflexus; settings: application rate 80 g/ha, rated visually about 3 weeks after treatment
How it was run: as §1

ABUTH = assay: Post-emergence herbicidal action against ABUTH; format: in vivo, Abutilon theophrasti; settings: application rate 80 g/ha, rated visually about 3 weeks after treatment
How it was run: as §1

VERPE = assay: Post-emergence herbicidal action against VERPE; format: in vivo, Veronica persica; settings: application rate 80 g/ha
How it was run: as §1

ECHCG = assay: Post-emergence herbicidal action against ECHCG; format: in vivo, Echinochloa crus-galli; settings: application rate 80 g/ha, rated visually after about 3 weeks
How it was run: as §1

SETVI = assay: Post-emergence herbicidal action against SETVI; format: in vivo, Setaria viridis; settings: application rate 80 g/ha, rated visually after about 3 weeks
How it was run: as §1

LOLRI = assay: Post-emergence herbicidal action against LOLRI; format: in vivo, Lolium rigidum; settings: application rate 80 g/ha, rated visually after about 3 weeks
How it was run: as §1

VIOTR = assay: Post-emergence herbicidal action against VIOTR; format: in vivo, Viola tricolor; settings: application rate 80 g/ha, rated visually about 3 weeks after treatment
Protocol: (§2) [table] 2. Post-emergence herbicidal action against harmful plants and crop plant compatibility Seeds of monocotyledonous and dicotyledonous weeds and crop plants are placed in sandy loam in plastic or wood-fibre pots, covered with soil and cultivated in a greenhouse under controlled growth conditions. 2 to 3 weeks after sowing, the test plants are treated at the one-leaf stage. The compounds of the invention, formulated in the form of wettable powders (WP) or as emulsion concentrates (EC), are then sprayed onto the green parts of the plants as aqueous suspension or emulsion with addition of 0.5% additive at a water application rate of 600 l/ha (converted). After the test plants have been kept in the greenhouse under optimum growth conditions for about 3 weeks, the activity of the preparations is rated visually in comparison to untreated controls. For example, 100% activity=the plants have died, 0% activity=like control plants.

STEME = assay: Post-emergence herbicidal action against STEME; format: in vivo, Stellaria media; settings: application rate 80 g/ha, rated visually about 3 weeks after treatment
How it was run: as §1

HORMU = assay: Post-emergence herbicidal action against HORMU; format: in vivo, Hordeum murinum; settings: application rate 80 g/ha
How it was run: as §1

PHBPU = assay: Post-emergence herbicidal action against PHBPU; format: in vivo, Pharbitis purpurea; settings: application rate 80 g/ha, rated visually about 3 weeks after treatment
Protocol: as §2

SMILES	Herbicidal action against [%] ALOMY (ALOMY)	Herbicidal action against [%] POLCO (POLCO)	Herbicidal action against [%] AVEFA (AVEFA)	Herbicidal action against [%] AMARE (AMARE)	Herbicidal action against [%] ABUTH (ABUTH)	Herbicidal action against [%] VERPE (VERPE)	Herbicidal action against [%] ECHCG (ECHCG)	Herbicidal action against [%] SETVI (SETVI)	Herbicidal action against [%] LOLRI (LOLRI)	Herbicidal action against [%] VIOTR (VIOTR)	Herbicidal action against [%] STEME (STEME)	Herbicidal action against [%] HORMU (HORMU)	Herbicidal action against [%] PHBPU (PHBPU)
O=C(C1C=CC(NC(=O)C2(C(F)(F)F)CC(c3cc(F)cc(F)c3)=NO2)C1)N1CCCCO1 (mixture of isomers) [II-31]	90%	90%	100%	80%	90%	90%	90%	80%	90%	90%	90%	80%	–
N#Cc1cc(F)cc(C2=NOC(C(=O)NC3C=CC(C(=O)OCCCl)C3)(C(F)(F)F)C2)c1 (mixture of isomers) [Example I-089]	100%	90%	100%	90%	90%	90%	90%	80%	100%	90%	90%	100%	–
CC(C)(NC(=O)C1C=CC(NC(=O)C2(C(F)(F)F)CC(c3cc(F)cc(F)c3)=NO2)C1)C(F)(F)F (centres unmarked) [II-38]	–	–	–	90%	–	–	–	–	–	80%	–	–	–
CCOC(=O)C1C=CC(NC(=O)C2(C(F)(F)F)CC(c3cccc(C#N)c3)=NO2)C1 (mixture of isomers) [Example I-072]	90%	90%	100%	80%	80%	80%	90%	80%	90%	80%	80%	90%	–
O=C(O)C1=C[C@@H](NC(=O)[C@@]2(C(F)(F)F)CC(c3cc(F)cc(F)c3)=NO2)CC1 [Example V-04]	100%	–	–	80%	80%	80%	80%	80%	90%	80%	90%	90%	–
COC(=O)C(NC(=O)C1C=CC(NC(=O)C2(C(F)(F)F)CC(c3cc(F)cc(F)c3)=NO2)C1)C(C)C (mixture of isomers) [II-37]	80%	100%	100%	90%	80%	90%	–	80%	100%	90%	90%	90%	–
CCCS(=O)(=O)NC(=O)C1C=CC(NC(=O)C2(C(F)(F)F)CC(c3cc(F)cc(F)c3)=NO2)C1 (mixture of isomers) [II-33]	–	90%	100%	90%	80%	80%	80%	80%	90%	90%	80%	90%	–
C=CC1(C(=O)NC2C=CC(C(=O)O)C2)CC(c2cc(F)cc(F)c2)=NO1 (centres unmarked) [Example I-014]	90%	80%	90%	90%	–	90%	90%	80%	90%	90%	90%	80%	–
C=CC1(C(=O)NC2C=CC(C(=O)OC(C)(C)C)C2)CC(c2cc(F)cc(F)c2)=NO1 (mixture of isomers) [Example I-060]	90%	–	90%	80%	–	–	90%	–	–	80%	–	90%	80%
Cc1cc(C)cc(C2=NOC(C(=O)NC3C=CC(C(=O)OCC(F)(F)F)C3)(C(F)(F)F)C2)c1 (mixture of isomers) [Example I-057]	90%	80%	–	–	–	80%	80%	–	90%	80%	80%	80%	–
COCCOC(=O)C1C=CC(NC(=O)C2(C(F)(F)F)CC(c3cc(F)cc(C#N)c3)=NO2)C1 (centres unmarked) [Example I-099]	90%	80%	90%	80%	–	80%	80%	90%	100%	80%	80%	80%	–
C=CC1(C(=O)NC2C=CC(C(=O)N3CCCO3)C2)CC(c2cc(F)cc(F)c2)=NO1 (centres unmarked) [II-28]	100%	80%	80%	80%	90%	90%	90%	80%	90%	–	90%	80%	90%
Cc1cc(Cl)cc(C2=NOC(C(=O)N[C@H]3C=C[C@@H](C(=O)OCC(F)(F)F)C3)(C(F)(F)F)C2)c1 (some centres unmarked) [Example I-029]	90%	80%	80%	90%	–	90%	–	80%	90%	80%	–	80%	–
